Test results: patent publication US20080164212A1, “Method for Determining and Controlling the Formation of Deposits In a Water System” (ASHLAND LICENSING AND INTELLECTUAL PROPERTY LLC., priority 2005, published 2008)

Test system: total germ count (aerobic bacteria) in wire water of a newsprint paper machine
Experiment: Total germ count by plating on agar, wire water in a flow cell system dosed daily with biocide
Type: cell-based
Conditions: 5 days in a flow cell, 48° C.
Description: Furthermore, conventional platings on agar (Plate Count Agar from Merck, Darmstadt, Germany) were also carried out to obtain an indication of the total germ counts.
The aim was to determine the correlation between the results of a conventional biocide screening and the real formation of slime deposits. The investigations were carried on the wire water of a newsprint paper machine using 100% TMP. With a biocide screening, it was possible to determine the optimum biocide concentration for the achievement of a germ count reduction by 10^2 within 30 minutes. In order to follow slime formation at this biocide concentration, a flow cell system with suspended coupons was employed.
The wire water, which was also used for the biocide screening, was poured into the storage bottles of this system and enriched with a number of clots of slime from the wire water channel. The investigation was carried out at system temperature (in this case 48° C.). During the test period of 5 days, biocide was dosed daily. After exposure, the coupons were immediately selectively dyed in order to distinguish between live and dead organisms and then analysed with CLSM. Samples were plated on an agar medium (aerobically) at the same time.

N#CC(Br)(Br)C(N)=O [DBNPA, dibromonitrile propionamide]
Total germ count (DBNPA 40 ppm product): < 1000 cfa/ml

CC(=O)OO [peracetic acid]
Total germ count (peracetic acid 60 ppm product): < 1000 cfu/ml
